Patent US7582611B2, “Motilide compounds” (Pfizer Inc., priority 2005, dated 2009)
Values after ≈ are worked out from the molar mass of the structure shown.

Key:
Motilin Receptor = target: T1, Motilin Receptor (Oryctolagus cuniculus, UniProt G1T803); assay: Tissue based assay for motilin agonist potency (rabbit duodenum contractility); type: cell-based; conditions: rabbit duodenum strips, contraction normalized to 1 μM carbachol; read-out: Motilin Receptor Agonist Activity (EC50)
T1 construct: strips of longitudinal smooth muscle were sliced from the segments; from tissue; host or cells: rabbit duodenum longitudinal smooth muscle strips
Description: The motilin agonist potencies of compounds of this invention were evaluated using a tissue based assay, using rabbit duodenum tissue-based contractility assay, generally following the procedure of Depoortere et al., J. Gastrointestinal Motility, 1, 150-159 (1989), the disclosure of which is incorporated herein by reference. Briefly, this method measures the ability of a compound to induce contractions in rabbit duodenal tissue, a motilin receptor-bearing tissue contractilely responsive to motilin.
Strips of rabbit duodenum were tested and qualified for use in the assay by as follows. Segments of rabbit duodenum, 20-30 cm distal to the pylorus were split longitudinally. The mucosa was removed and 2×2×15 mm strips of longitudinal smooth muscle were sliced from the segments. The strips were bathed in oxygenated Krebs solution at 37° C., with 1.5 g of tension, and contractions measured auxotonically.
The carbachol was then washed away by changing the organ bath buffer twice. The strips were washed again 20±5 minutes following the carbachol contraction. Following this last wash a dose response study was initiated within 10±5 min. Each compound tested was dissolved in dimethylsulfoxide (DMSO) to a final concentration of 10 mM. A series of seven 10× serial dilutions in water was prepared, so that the concentration of the seventh serial dilution was 1.0×10^−6 mM. The first through fifth serial dilutions of the compound were applied, starting with 200 μL of the most dilute solution. After each application, there was a wait of 2±0.5 min, until the response was stable, before the application of the next dose (the next higher concentration serial dilution). The dose was increased in 10-fold increments until a small response was observed. Subsequent doses were the increased in 2- to 5-fold increments, until the maximum response was obtained. At 2±0.5 min after the last drug addition, the strips were dosed with 1 μM carbachol.
The EC50 (concentration producing a half-maximal effect) was calculated as follows. The basal tension was subtracted from the compound-induced tension for each reading. The data points were normalized against the response obtained from 1 μM carbachol at the end of the experiment. The concentration of compound was plotted against the response and fitted to the following equation: R=(Rmax·C)/(EC50+C) where R is the contraction response, Rmax is the maximal contraction response, and C is the concentration of compound. Both R and Rmax are expressed as a fraction of the 1 μM carbachol contraction and range from 0 to 1.

[1] = test system: Streptococcus pneumoniae ATCC 6301; assay: Evaluation of antibacterial activity (MIC, serial dilutions on 96-well microtiter plates); type: cell-based; conditions: ATCC6301, read-out: Antibacterial Activity (MIC, μg/mL)

T1 sequence (G1T803 1-400): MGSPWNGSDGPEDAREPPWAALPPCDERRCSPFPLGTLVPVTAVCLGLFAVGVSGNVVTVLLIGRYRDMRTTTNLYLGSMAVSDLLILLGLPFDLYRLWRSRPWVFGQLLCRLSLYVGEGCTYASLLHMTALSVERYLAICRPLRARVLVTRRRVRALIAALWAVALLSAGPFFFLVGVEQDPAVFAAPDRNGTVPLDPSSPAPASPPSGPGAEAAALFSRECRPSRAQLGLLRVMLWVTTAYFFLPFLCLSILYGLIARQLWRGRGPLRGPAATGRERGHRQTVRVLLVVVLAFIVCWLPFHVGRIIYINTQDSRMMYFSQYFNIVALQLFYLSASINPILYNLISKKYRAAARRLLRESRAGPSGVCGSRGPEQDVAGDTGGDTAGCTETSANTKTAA

Row | SMILES | EC50 (Motilin Receptor) [µM] | MIC [1] [µg/mL]
1 | CC[C@H]1OC(=O)[C@H](C)[C@@H](O[C@H]2C[C@@](C)(OC)[C@@H](O)[C@H](C)O2)[C@H](C)[C@@H](O[C@@H]2O[C@H](C)C[C@H](N(C)C(C)C)[C@H]2O)[C@](C)(O)C[C@@H](C)[C@H](OC(N)=O)[C@H](C)[C@@H](O)[C@]1(C)O [Compound A-17] | 0.65 | 64 (≈ 79.3 µM)
2 | CC[C@H]1OC(=O)[C@H](C)[C@@H](O[C@H]2C[C@@](C)(OC)[C@@H](O)[C@H](C)O2)[C@H](C)[C@@H](O[C@@H]2O[C@H](C)C[C@H](N(C)C(C)C)[C@H]2O)[C@](C)(O)C[C@@H](C)[C@H](OC(=O)N(C)C)[C@H](C)[C@@H](O)[C@]1(C)O [Compound A-18] | 0.31 | 128 (≈ 153 µM)
3 | CC[C@H]1OC(=O)[C@H](C)[C@@H](O[C@H]2C[C@@](C)(OC)[C@@H](O)[C@H](C)O2)[C@H](C)[C@@H](O[C@@H]2O[C@H](C)C[C@H](N(C)C(C)C)[C@H]2O)[C@](C)(O)C[C@@H](C)[C@H](OS(=O)(=O)N(C)C)[C@H](C)[C@@H](O)[C@]1(C)O [Compound A-19] | 0.091 | 128 (≈ 147 µM)
4 | CC[C@H]1OC(=O)[C@H](C)[C@@H](O[C@H]2C[C@@](C)(OC)[C@@H](O)[C@H](C)O2)[C@H](C)[C@@H](O[C@@H]2O[C@H](C)C[C@H](N(C)C[C@H](C)O)[C@H]2O)[C@](C)(O)C[C@@H](C)[C@H](OS(=O)(=O)N(C)C)[C@H](C)[C@@H](O)[C@]1(C)O [Compound A-20] | 0.49 | 128 (≈ 144 µM)
5 | CC[C@H]1OC(=O)[C@H](C)[C@@H](O[C@H]2C[C@@](C)(OC)[C@@H](O)[C@H](C)O2)[C@H](C)[C@@H](O[C@@H]2O[C@H](C)C[C@H](N(C)C(C)C)[C@H]2O)[C@](C)(O)C[C@@H](C)[C@H](OCC(=O)NC)[C@H](C)[C@@H](O)[C@]1(C)O [Compound A-21] | 0.058 | 64 (≈ 76.6 µM)
6 | CC[C@H]1OC(=O)[C@H](C)[C@@H](O[C@H]2C[C@@](C)(OC)[C@@H](O)[C@H](C)O2)[C@H](C)[C@@H](O[C@@H]2O[C@H](C)C[C@H](N(C)C(C)C)[C@H]2O)[C@](C)(O)C[C@@H](C)[C@H](OCC(=O)OC)[C@H](C)[C@@H](O)[C@]1(C)O [Compound A-22] | 0.14 | 128 (≈ 153 µM)
7 | CC[C@H]1OC(=O)[C@H](C)[C@@H](O[C@H]2C[C@@](C)(OC)[C@@H](O)[C@H](C)O2)[C@H](C)[C@@H](O[C@@H]2O[C@H](C)C[C@H](N(C)C3CCC3)[C@H]2O)[C@](C)(O)C[C@@H](C)[C@H](OCC(=O)OC)[C@H](C)[C@@H](O)[C@]1(C)O [Compound A-23] | 0.56 | > 128
8 | CC[C@H]1OC(=O)[C@H](C)[C@@H](O[C@H]2C[C@@](C)(OC)[C@@H](O)[C@H](C)O2)[C@H](C)[C@@H](O[C@@H]2O[C@H](C)C[C@H](N(C)C3CCC3)[C@H]2O)[C@](C)(O)C[C@@H](C)[C@H](OC(C)=O)[C@H](C)[C@@H](O)[C@]1(C)O [Compound A-24] | 0.86 | > 128
9 | CCC(=O)O[C@@H]1[C@H](C)[C@@H](O)[C@](C)(O)[C@@H](CC)OC(=O)[C@H](C)[C@@H](O[C@H]2C[C@@](C)(OC)[C@@H](O)[C@H](C)O2)[C@H](C)[C@@H](O[C@@H]2O[C@H](C)C[C@H](N(C)C3CCC3)[C@H]2O)[C@](C)(O)C[C@H]1C [Compound A-25] | 1.2 | > 128
10 | CC[C@H]1OC(=O)[C@H](C)[C@@H](O[C@H]2C[C@@](C)(OC)[C@@H](O)[C@H](C)O2)[C@H](C)[C@@H](O[C@@H]2O[C@H](C)C[C@H](N(C)C(C)C)[C@H]2O)[C@](C)(O)C[C@@H](C)[C@H](OCc2csc(C)n2)[C@H](C)[C@@H](O)[C@]1(C)O [Compound A-26] | 0.48 | 128 (≈ 146 µM)
11 | CC[C@H]1OC(=O)[C@H](C)[C@@H](O[C@H]2C[C@@](C)(OC)[C@@H](O)[C@H](C)O2)[C@H](C)[C@@H](O[C@@H]2O[C@H](C)C[C@H](N(C)C(C)C)[C@H]2O)[C@](C)(O)C[C@@H](C)[C@H](OCc2cc(C)on2)[C@H](C)[C@@H](O)[C@]1(C)O [Compound A-27] | 0.11 | 128 (≈ 149 µM)
12 | CC[C@H]1OC(=O)[C@H](C)[C@@H](O[C@H]2C[C@@](C)(OC)[C@@H](O)[C@H](C)O2)[C@H](C)[C@@H](O[C@@H]2O[C@H](C)C[C@H](N(C)C(C)C)[C@H]2O)[C@](C)(O)C[C@@H](C)[C@H](OCc2ccncc2)[C@H](C)[C@@H](O)[C@]1(C)O [Compound A-28] | > 0.42 | 128 (≈ 150 µM)
13 | CC[C@H]1OC(=O)[C@H](C)[C@@H](O[C@H]2C[C@@](C)(OC)[C@@H](O)[C@H](C)O2)[C@H](C)[C@@H](O[C@@H]2O[C@H](C)C[C@H](N(C)C(C)C)[C@H]2O)[C@](C)(O)C[C@@H](C)[C@H](OCc2nccs2)[C@H](C)[C@@H](O)[C@]1(C)O [Compound A-29] | 0.29 | 128 (≈ 149 µM)
14 | CC[C@H]1OC(=O)[C@H](C)[C@@H](O[C@H]2C[C@@](C)(OC)[C@@H](O)[C@H](C)O2)[C@H](C)[C@@H](O[C@@H]2O[C@H](C)C[C@H](N(C)C(C)C)[C@H]2O)[C@](C)(O)C[C@@H](C)[C@H](OCCNC(C)=O)[C@H](C)[C@@H](O)[C@]1(C)O [Compound A-30] | 0.048 | > 128
15 | CCNC(=O)CO[C@@H]1[C@H](C)[C@@H](O)[C@](C)(O)[C@@H](CC)OC(=O)[C@H](C)[C@@H](O[C@H]2C[C@@](C)(OC)[C@@H](O)[C@H](C)O2)[C@H](C)[C@@H](O[C@@H]2O[C@H](C)C[C@H](N(C)C(C)C)[C@H]2O)[C@](C)(O)C[C@H]1C [Compound A-31] | 0.067 | > 128
16 | CC[C@H]1OC(=O)[C@H](C)[C@@H](O[C@H]2C[C@@](C)(OC)[C@@H](O)[C@H](C)O2)[C@H](C)[C@@H](O[C@@H]2O[C@H](C)C[C@H](N(C)C(C)C)[C@H]2O)[C@](C)(O)C[C@@H](C)[C@H](OCCNS(C)(=O)=O)[C@H](C)[C@@H](O)[C@]1(C)O [Compound A-32] | 0.24 | > 128
17 | CC[C@H]1OC(=O)[C@H](C)[C@@H](O[C@H]2C[C@@](C)(OC)[C@@H](O)[C@H](C)O2)[C@H](C)[C@@H](O[C@@H]2O[C@H](C)C[C@H](N(C)C(C)C)[C@H]2O)[C@](C)(O)C[C@@H](C)[C@H](OCC(=O)NC2CCOCC2)[C@H](C)[C@@H](O)[C@]1(C)O [Compound A-33] | 0.12 | > 128
18 | CC[C@H]1OC(=O)[C@H](C)[C@@H](O[C@H]2C[C@@](C)(OC)[C@@H](O)[C@H](C)O2)[C@H](C)[C@@H](O[C@@H]2O[C@H](C)C[C@H](N(C)C(C)C)[C@H]2O)[C@](C)(O)C[C@@H](C)[C@H](OCC(=O)NCCO)[C@H](C)[C@@H](O)[C@]1(C)O [Compound A-34] | 0.12 | 128 (≈ 148 µM)
19 | CC[C@H]1OC(=O)[C@H](C)[C@@H](O[C@H]2C[C@@](C)(OC)[C@@H](O)[C@H](C)O2)[C@H](C)[C@@H](O[C@@H]2O[C@H](C)C[C@H](N(C)C(C)C)[C@H]2O)[C@](C)(O)C[C@@H](C)[C@H](NS(C)(=O)=O)[C@H](C)[C@@H](O)[C@]1(C)O [Compound A-35] | 0.19 | 64 (≈ 76.1 µM)
20 | CC[C@H]1OC(=O)[C@H](C)[C@@H](O[C@H]2C[C@@](C)(OC)[C@@H](O)[C@H](C)O2)[C@H](C)[C@@H](O[C@@H]2O[C@H](C)C[C@H](N(C)CCO)[C@H]2O)[C@](C)(O)C[C@@H](C)[C@H](NS(C)(=O)=O)[C@H](C)[C@@H](O)[C@]1(C)O [Compound A-36] | 0.066 | 32 (≈ 38 µM)
21 | CC[C@H]1OC(=O)[C@H](C)[C@@H](O[C@H]2C[C@@](C)(OC)[C@@H](O)[C@H](C)O2)[C@H](C)[C@@H](O[C@@H]2O[C@H](C)C[C@H](N(C)CC(C)(C)O)[C@H]2O)[C@](C)(O)C[C@@H](C)[C@H](NS(C)(=O)=O)[C@H](C)[C@@H](O)[C@]1(C)O [Compound A-37] | 0.052 | 64 (≈ 73.5 µM)
22 | CC[C@H]1OC(=O)[C@H](C)[C@@H](O[C@H]2C[C@@](C)(OC)[C@@H](O)[C@H](C)O2)[C@H](C)[C@@H](O[C@@H]2O[C@H](C)C[C@H](N(C)CC(C)C)[C@H]2O)[C@](C)(O)C[C@@H](C)[C@H](NS(C)(=O)=O)[C@H](C)[C@@H](O)[C@]1(C)O [Compound A-38] | 0.14 | 128 (≈ 150 µM)
23 | CC[C@H]1OC(=O)[C@H](C)[C@@H](O[C@H]2C[C@@](C)(OC)[C@@H](O)[C@H](C)O2)[C@H](C)[C@@H](O[C@@H]2O[C@H](C)C[C@H](N(C)C3CCC3)[C@H]2O)[C@](C)(O)C[C@@H](C)[C@H](NS(C)(=O)=O)[C@H](C)[C@@H](O)[C@]1(C)O [Compound A-39] | 0.28 | > 128
